In patent US20140343049A1, “DIHYDROFURAN DERIVATIVES AS INSECTICIDAL COMPOUNDS” (SYNGENTA PARTICIPATIONS AG, priority 2011, published 2014):

Assays:
Assay type in all cases: in vivo
[1] = test system: Plutella xylostella (diamond back moth); experiment: Plutella xylostella L2 larvae test on artificial diet; settings: 144 h, 200 ppm (concentration in well 18 ppm), 6 days, larval mortality and growth regulation
Protocol: (§1) 24-well microtiter plate (MTP) with artificial diet was treated with test solutions at an application rate of 200 ppm (concentration in well 18 ppm) by pipetting. After drying, the MTPs were infested with L2 larvae (7-12 per well). After an incubation period of 6 days, samples were checked for larval mortality and growth regulation.

[2] = test system: Diabrotica balteata (corn root worm); experiment: Diabrotica balteata L2 larvae test on artificial diet; settings: 120 h, 200 ppm (concentration in well 18 ppm), 5 days, larval mortality and growth regulation
Protocol: as §1, with “A 24-well” for “24-well”, “(6-10” for “(7-12”, “5” for “6”
as §1, with “A 24-well” for “24-well”, “12.5” for “200”, “MTP's” for “MTPs”, “(6-10” for “(7-12”, “5” for “6”

[3] = test system: Spodoptera littoralis (Egyptian cotton leafworm); experiment: Spodoptera littoralis cotton leaf disc spray test; settings: foliar, 72 h, cotton leaf discs sprayed at 200 ppm, 5 L1 larvae, mortality, feeding behavior, growth regulation 3 days after treatment
Text: Cotton leaf discs were placed on agar in a 24-well microtiter plate and sprayed with test solutions at an application rate of 200 ppm. After drying, the leaf discs were infested with 5 L1 larvae. The samples were checked for mortality, feeding behavior, and growth regulation 3 days after treatment (DAT).

[4] = test system: Heliothis virescens (tobacco budworm); experiment: Heliothis virescens egg test on artificial diet; settings: 96 h, 200 ppm (concentration in well 18 ppm), eggs 0-24 h old, 4 days, egg mortality, larval mortality, growth regulation
Protocol: Eggs (0-24 h old) were placed in 24-well microtiter plate on artificial diet and treated with test solutions at an application rate of 200 ppm (concentration in well 18 ppm) by pipetting. After an incubation period of 4 days, samples were checked for egg mortality, larval mortality, and growth regulation.

[5] = test system: Tetranychus urticae (two-spotted spider mite); experiment: Tetranychus urticae bean leaf disc spray test; settings: foliar, 192 h, bean leaf discs sprayed at 200 ppm, mixed ages, egg, larval and adult mortality 8 days later
Text: Bean leaf discs on agar in 24-well microtiter plates were sprayed with test solutions at an application rate of 200 ppm. After drying, the leaf discs are infested with mite populations of mixed ages. 8 days later, discs are checked for egg mortality, larval mortality, and adult mortality. […]

Measured: pest or weed control at 200 ppm

COCC(C)NC(=O)c1ccc(C2=CC(c3cc(Cl)cc(Cl)c3)(C(F)(F)F)OC2)cc1C (stereo not drawn) [Compound A6]
not listed: [5]
≥ 80%: all other assays above

Cc1cc(C2=CC(c3cc(Cl)cc(Cl)c3)(C(F)(F)F)OC2)ccc1C(=O)NCC1CCCO1 (stereo not drawn) [Compound A7]
not listed: [5]
≥ 80%: all other assays above

COc1ccc(CNC(=O)c2ccc(C3=CC(c4cc(Cl)cc(Cl)c4)(C(F)(F)F)OC3)cc2C)cc1 (stereo not drawn) [Compound A10]
not listed: [2]
≥ 80%: all other assays above

Cc1csc(NC(=O)c2ccc(C3=CC(c4cc(Cl)cc(Cl)c4)(C(F)(F)F)OC3)cc2C)n1 (stereo not drawn) [Compound A11]
not listed: [2]
≥ 80%: all other assays above

Cc1cc(C2=CC(c3cc(Cl)cc(Cl)c3)(C(F)(F)F)OC2)ccc1C(=O)NC1(C)CSC1 (stereo not drawn) [Compound A12]
not listed: [2]
≥ 80%: all other assays above

Cc1cc(C2=CC(c3cc(Cl)cc(Cl)c3)(C(F)(F)F)OC2)ccc1C(=O)NC1C[S+]([O-])C1 (stereo not drawn) [Compound A13]
≥ 80%: [5] | [3] | [4]

Cc1cc(C2=CC(c3cc(Cl)cc(Cl)c3)(C(F)(F)F)OC2)ccc1C(=O)NC1CCC1 (stereo not drawn) [Compound A14]
≥ 80%: [5] | [3] | [4]

Cc1cc(C2=CC(c3cc(Cl)cc(Cl)c3)(C(F)(F)F)OC2)ccc1C(=O)NCc1nc2ccccc2[nH]1 (stereo not drawn) [Compound A18]
not listed: [3]
≥ 80%: all other assays above

Cc1cc(C2=CC(c3cc(Cl)cc(Cl)c3)(C(F)(F)F)OC2)ccc1C(=O)NC1CCSC1=O (stereo not drawn) [Compound A21]
not listed: [5]
≥ 80%: all other assays above

CCC(CO)NC(=O)c1ccc(C2=CC(c3cc(Cl)cc(Cl)c3)(C(F)(F)F)OC2)cc1C (stereo not drawn) [Compound A28]
≥ 80%: [5] | [3]

Cc1cc(C2=CC(c3cc(Cl)cc(Cl)c3)(C(F)(F)F)OC2)ccc1C(=O)NC(C)c1ccccc1 (stereo not drawn) [Compound A38]
not listed: [2]
≥ 80%: all other assays above

Cc1cc(C2=CC(c3cc(Cl)cc(Cl)c3)(C(F)(F)F)OC2)ccc1C(=O)NC1CC(C)(C)N(C)C(C)(C)C1 (stereo not drawn) [Compound A40]
≥ 80%: [5]

Cc1cc(C2=CC(c3cc(Cl)cc(Cl)c3)(C(F)(F)F)OC2)ccc1C(=O)NCc1cccc(Cl)c1 (stereo not drawn) [Compound A43]
≥ 80%: [5] | [2] | [3]

CC(=O)NCCNC(=O)c1ccc(C2=CC(c3cc(Cl)cc(Cl)c3)(C(F)(F)F)OC2)cc1C (stereo not drawn) [Compound A45]
≥ 80%: [5]

Cc1cc(C2=CC(c3cc(Cl)cc(Cl)c3)(C(F)(F)F)OC2)ccc1C(=O)NCc1ccc(-n2cccn2)cc1 (stereo not drawn) [Compound A46]
not listed: [3]
≥ 80%: all other assays above

Cc1cc(C2=CC(c3cc(Cl)cc(Cl)c3)(C(F)(F)F)OC2)ccc1C(=O)NCc1ccc(Cl)nc1 (stereo not drawn) [Compound A52]
not listed: [2]
≥ 80%: all other assays above

Cc1cc(C2=CC(c3cc(Cl)cc(Cl)c3)(C(F)(F)F)OC2)ccc1C(=O)NCc1ccco1 (stereo not drawn) [Compound A55]
not listed: [5]
≥ 80%: all other assays above

Cc1cc(C2=CC(c3cc(Cl)cc(Cl)c3)(C(F)(F)F)OC2)ccc1C(=O)Nc1ccccc1Cl (stereo not drawn) [Compound A56]
not listed: [3]
≥ 80%: all other assays above

COc1ccc(NC(=O)c2ccc(C3=CC(c4cc(Cl)cc(Cl)c4)(C(F)(F)F)OC3)cc2C)c(OC)c1 (stereo not drawn) [Compound A58]
not listed: [3]
≥ 80%: all other assays above

Cc1cc(C2=CC(c3cc(Cl)cc(Cl)c3)(C(F)(F)F)OC2)ccc1C(=O)Nc1ccc2[nH]ncc2c1 (stereo not drawn) [Compound A60]
not listed: [5]
≥ 80%: all other assays above

CSc1ccccc1NC(=O)c1ccc(C2=CC(c3cc(Cl)cc(Cl)c3)(C(F)(F)F)OC2)cc1C (stereo not drawn) [Compound A63]
≥ 80%: [1] | [5] | [2]

Cc1cc(C2=CC(c3cc(Cl)cc(Cl)c3)(C(F)(F)F)OC2)ccc1C(=O)Nc1ccc2ncsc2c1 (stereo not drawn) [Compound A64]
not listed: [5]
≥ 80%: all other assays above

O=C(NCc1ccccc1)c1ccc(C2=CC(c3cc(Cl)cc(Cl)c3)(C(F)(F)F)OC2)nc1 (stereo not drawn) [Compound B9]
≥ 80%: [1] | [5]

Cc1nc(C2=CC(c3cc(Cl)cc(Cl)c3)(C(F)(F)F)OC2)ccc1C(=O)NCC(F)(F)F (stereo not drawn) [Compound C1]
not listed: [5]
≥ 80%: all other assays above

CCCCNC(=O)c1ccc(C2=CC(c3cc(Cl)cc(Cl)c3)(C(F)(F)F)OC2)nc1C (stereo not drawn) [Compound C3]
not listed: [5]
≥ 80%: all other assays above

Cc1nc(C2=CC(c3cc(Cl)cc(Cl)c3)(C(F)(F)F)OC2)ccc1C(=O)NCc1ccccc1 (stereo not drawn) [Compound C9]
not listed: [5]
≥ 80%: all other assays above

Cc1nc(C2=CC(c3cc(Cl)cc(Cl)c3)(C(F)(F)F)OC2)ccc1C(=O)NCc1ccccc1F (stereo not drawn) [Compound C10]
not listed: [5]
≥ 80%: all other assays above

Cc1nc(C2=CC(c3cc(Cl)cc(Cl)c3)(C(F)(F)F)OC2)ccc1C(=O)NC(C)c1ccccc1 (stereo not drawn) [Compound C11]
not listed: [5]
≥ 80%: all other assays above

COc1ccc(CNC(=O)c2ccc(C3=CC(c4cc(Cl)cc(Cl)c4)(C(F)(F)F)OC3)nc2C)cc1 (stereo not drawn) [Compound C12]
not listed: [5]
≥ 80%: all other assays above

Cc1cc(C2=CC(c3cc(Cl)cc(Cl)c3)(C(F)(F)F)OC2=O)ccc1C(=O)NC1(C)CSC1 (stereo not drawn) [Compound E16]
≥ 80%: [5]

O=C(NC1CS(=O)(=O)C1)c1ccc(C2=CC(c3cc(Cl)cc(Cl)c3)(C(F)(F)F)OC2)nc1Cl (stereo not drawn) [Compound F2, 2-Chloro-6-[5-(3,5-dichloro-phenyl)-5-trifluoromethyl-2,5-dihydro-furan-3-yl]-N-(1,1-dioxo-1lambda*6*-thietan-3-yl)-nicotinamide]
not listed: [2]
≥ 80%: all other assays above

N#Cc1cc(C2=CC(c3cc(Cl)cc(Cl)c3)(C(F)(F)F)OC2)ccc1-n1cncn1 (stereo not drawn) [Compound G1, 5-[5-(3,5-Dichloro-phenyl)-5-trifluoromethyl-2,5-dihydro-furan-3-yl]-2-[1,2,4]triazol-1-yl-benzonitrile]
not listed: [5]
≥ 80%: all other assays above
